{
  "source": "patent US20050101565A1",
  "about": "“Pharmaceutical compositions and methods for treating, preventing, and managing cholesterol, dyslipidemia, and related disorders” (Esperion Therapeutics, Inc., priority 2002, published 2005)",
  "origin": "cited, not measured here",
  "key": {"[1]": {"conditions": "many patients, metformin therapy"}, "[2]": {"conditions": "patients on metformin therapy"}},
  "data": [
    {"smiles": "CN(C)C(=N)N=C(N)N", "note": "[metformin]", "values": [
      {"measurement": "weight reduction", "setting": "[1]", "value": "5-10%"},
      {"measurement": "incidence of lactic acidosis", "setting": "[2]", "value": "3 cases per 100,000 patient/year of therapy"}
    ]}
  ]
}
